Assay results from ChEMBL document CHEMBL5136972, “Targeting SARS-CoV-2 Proteases and Polymerase for COVID-19 Treatment: State of the Art and Future Opportunities” (J Med Chem, 2022).
pEC50, pIC50: −log10 of the molar value.

What was measured:
[1] = test system: SARS-CoV; experiment: Antiviral activity against SARS CoV infected in HAE cells measured after 48 hrs by CellTiter-Glo assay; assay type: functional, organism-based; settings: Severe acute respiratory syndrome-related coronavirus
[2] = test system: SARS-CoV-2; experiment: Antiviral activity against SARS CoV-2 infected in human Huh-7 cells measured up to 72 hrs by plaque assay; assay type: functional, organism-based; settings: Severe acute respiratory syndrome coronavirus 2, Huh-7, 72 h
[3] = test system: SARS-CoV-2; experiment: Antiviral activity against SARS CoV-2 infected in African green monkey Vero E6 cells assessed as inhibition of virus-induced cytopathic effect measured after 72 hrs by Reed-Muench method; assay type: functional, organism-based; settings: Severe acute respiratory syndrome coronavirus 2, Vero C1008, 72 h
[4] = test system: Middle East respiratory syndrome-related coronavirus; experiment: Antiviral activity against […] CoV infected in HAE cells measured after 48 hrs by CellTiter-Glo assay; assay type: functional, organism-based
[5] = in vivo; settings: C57BL/6J (Ces1c knockout), mouse, sc, 25 mg/kg
[6] = in vivo; settings: C57BL/6J (wild type), mouse, sc, 25 mg/kg
[7] = Cytotoxicity against African green monkey Vero E6 cells by CCK-8 assay; assay type: toxicity, cell-based, Vero C1008; settings: chlorocebus sabaeus
[8] = Clearance in CD-1 mouse at 5 to 20 mg/kg, ip measured after up to 24 hrs by LC-MS/MS analysis; assay type: ADME, organism-based; settings: in vivo, dose 5-20 mg/kg
[9] = test system: SARS-CoV-2; experiment: Antiviral activity against SARS CoV-2 infected in African green monkey Vero cells assessed as inhibition of plaque formation by viral plaque assay; assay type: functional, organism-based; settings: Severe acute respiratory syndrome coronavirus 2, Vero
[10] = test system: SARS-CoV-2; experiment: Antiviral activity against SARS CoV-2 clinical isolate 2019-nCoV/USA-WA1/2020 infected in African green monkey Vero E6 cells incubated for 48 hrs by CellTiter-Glo assay; assay type: functional, organism-based; settings: Severe acute respiratory syndrome coronavirus 2, 2019-nCoV/USA-WA1/2020, Vero C1008, 48 h
[11] = Cytotoxicity against African green monkey Vero E6 cells infected with SARS CoV-2 clinical isolate 2019-nCoV/USA-WA1/2020 incubated for 48 hrs by CellTiter-Glo assay; assay type: toxicity, cell-based, Vero C1008; settings: chlorocebus sabaeus
[12] = test system: SARS-CoV-2; experiment: Antiviral activity against SARS CoV-2 clinical isolate 2019-nCoV/USA-WA1/2020 infected in human Calu-3 cells measured after 72 hrs by plaque assay; assay type: functional, organism-based; settings: Severe acute respiratory syndrome coronavirus 2, 2019-nCoV/USA-WA1/2020, Calu-3, 72 h
[13] = Half life in CD1 mouse at 500 mg/kg, po administered as single dose by LC-MS/MS analysis; assay type: ADME, organism-based; settings: in vivo
[14] = Half life in CD1 mouse at 50 mg/kg, po administered as single dose by LC-MS/MS analysis; assay type: ADME, organism-based; settings: in vivo
[15] = Oral bioavailability in CD1 mouse at 500 mg/kg administered as single dose by LC-MS/MS analysis; assay type: ADME, organism-based; settings: in vivo
[16] = Drug distribution in CD1 mouse liver at 150 to 500 mg/kg, po measured after 8 hrs by LC-MS/MS analysis; assay type: ADME, organism-based; settings: in vivo, dose 150-500 mg/kg
[17] = Oral bioavailability in CD1 mouse at 50 mg/kg administered as single dose by LC-MS/MS analysis; assay type: ADME, organism-based; settings: in vivo
[18] = Half life in CD1 mouse at 150 mg/kg, po administered as single dose by LC-MS/MS analysis; assay type: ADME, organism-based; settings: in vivo
[19] = test system: Middle East respiratory syndrome-related coronavirus; experiment: Antiviral activity against […] infected in HAE cells incubated for 48 hrs by qRT-PCR analysis; assay type: functional, organism-based
[20] = test system: SARS-CoV; experiment: Antiviral activity against […] infected in HAE cells incubated for 48 hrs by qRT-PCR analysis; assay type: functional, organism-based
[21] = Oral bioavailability in CD1 mouse at 150 mg/kg administered as single dose by LC-MS/MS analysis; assay type: ADME, organism-based; settings: in vivo
[22] = Cytotoxicity against African green monkey Vero E6 cells incubated for 3 hrs by CCK-8 assay; assay type: toxicity, cell-based, Vero C1008; settings: chlorocebus sabaeus
[23] = test system: Murine hepatitis virus; experiment: Antiviral activity against MHV infected in African green monkey Vero cells assessed as inhibition of plaque formation by viral plaque assay; assay type: functional, organism-based; settings: Murine coronavirus
[24] = Cytotoxicity against African green monkey Vero cells; assay type: toxicity, cell-based; settings: chlorocebus sabaeus
[25] = test system: Murine hepatitis virus; experiment: Antiviral activity against MHV-A59 infected in African green monkey Vero cells assessed as inhibition of plaque formation by viral plaque assay; assay type: functional, organism-based; settings: Murine coronavirus
[26] = test system: Feline infectious peritonitis virus; experiment: Antiviral activity against FIPV infected in African green monkey Vero cells assessed as inhibition of plaque formation by viral plaque assay; assay type: functional, organism-based; settings: Alphacoronavirus 1, Vero
[27] = Inhibition of MERS CoV 3CL protease using MCA-AVLQSGFR-Lys(Dnp)-Lys-NH2 as substrate by fluorescence based analysis; parameters: species or system Middle East respiratory syndrome-related coronavirus
[28] = test system: Human coronavirus 229E; experiment: Antiviral activity against HCoV-229E infected in African green monkey Vero cells assessed as inhibition of plaque formation by viral plaque assay; assay type: functional, organism-based
[29] = biological target: T1, Replicase polyprotein 1ab (Severe acute respiratory syndrome coronavirus 2, UniProt P0DTD1); experiment: Inhibition of SARS CoV-2 PL protease
[30] = biological target: T1, Replicase polyprotein 1ab; experiment: Inhibition of C-terminal 6-His-tagged recombinant SARS CoV-2 3CL protease expressed in Escherichia coli BL21-Gold DE3 cells by FRET assay
[31] = test system: SARS-CoV-2; experiment: Antiviral activity against SARS CoV-2 infected in human Calu-3 cells measured after 24 hrs by qRT-PCR analysis; assay type: functional, organism-based; settings: Severe acute respiratory syndrome coronavirus 2, Calu-3, 24 h

CCC(CC)COC(=O)[C@H](C)N[P@](=O)(OC[C@H]1O[C@@](C#N)(c2ccc3c(N)ncnn23)[C@H](O)[C@@H]1O)Oc1ccccc1
pEC50 [1]: 7.16
pEC50 [2]: 8.52
pEC50 [3]: 6.19
pEC50 [4]: 7.13
half-life at 144 h [5]: 0.417 h
half-life at 144 h [6]: < 5 min

O=C[C@H](C[C@@H]1CCNC1=O)NC(=O)[C@H](Cc1cccc(F)c1)NC(=O)c1cc2ccccc2[nH]1
CC50 [7]: > 100000 nM
CL/F [8]: 21 mL/min/kg
pEC50 [9]: 6.14

O=c1nc(NO)ccn1[C@@H]1O[C@H](CO)[C@@H](O)[C@H]1O [N-HYDROXYCYTIDINE]
pEC50 [10]: 6.52
CC50 at 48 h [11]: > 10000 nM
pEC50 [12]: 7.10
half-life [13]: 2.7 h
half-life [14]: 5.2 h
bioavailability [15]: 36%
Drug uptake [16]: 10 nmol/g
bioavailability [17]: 56%
half-life [18]: 3.2 h
pEC50 [19]: 7.62
pEC50 [20]: 6.85
bioavailability [21]: 43%

O=C(O)[C@H]1O[C@@H](Oc2cc3oc(-c4ccccc4)cc(=O)c3c(O)c2O)[C@H](O)[C@@H](O)[C@@H]1O [BAICALIN]
CC50 at 3 h [22]: > 200000 nM

Cc1cc(C(=O)N[C@@H](C)C(=O)N[C@H](C(=O)N[C@@H](CC(C)C)C(=O)N[C@H](/C=C/C(=O)OCc2ccccc2)C[C@@H]2CCNC2=O)C(C)C)no1
pEC50 [23]: 5.47
CC50 [24]: > 133000 nM
pEC50 [25]: 5.57
pEC50 [26]: 5.06
pIC50 [27]: 6.52
pEC50 [28]: 5.40

CC(=O)N[C@@H](CCc1nc2ccccc2s1)C(=O)N[C@@H](CN)C(=O)NCC(=O)NC/C=C/C(=O)O
pIC50 [29]: 5.00

Nc1cccn([C@@H](CC2CC2)C(=O)N[C@@H](C[C@@H]2CCNC2=O)C(=O)C(=O)NCc2ccccc2)c1=O
pIC50 [30]: 5.87
pEC50 [31]: < 4.40
